The source of these data is patent US9168259B2 (GRÜNENTHAL GMBH, priority 2010, dated 2015).

In this assay the target is T1, KCNQ2/3 channels (Homo sapiens, UniProt O43525+O43526).
T1 construct: expressed in transfected cells
The experiment in a line: Fluorescence assay using a voltage sensitive dye (fluorimetry). Particulars: CHO-K1 cells expressing KCNQ2/3; for Emax: CHO-K1, plateau effect relative to saturated retigabine (50 μM) = 100%, negative values = antagonistic, read-out: Fluorimetry % efficacy (retigabine = 100%); for EC50: IC50 where % efficacy is negative, read-out: Fluorimetry EC50/IC50. Type of assay: cell-based. An excerpt:
Method I. Fluorescence Assay Using a Voltage Sensitive Dye (Fluorimetry)
These voltage-sensitive dyes are fluorescent dyes and, therefore, are forming the link between cell potential influenced by KCNQ modulation and fluorescence intensity. A KCNQ agonist leads to an opening of the channel, potassium and dye efflux, a following hyperpolarization and a reduction of the inner fluorescence intensity in a kinetic protocol. If applying an ion jump by KCl depolarization, KCNQ agonists increase the ΔF/F value. An antagonist performs vice versa, respectively.
Therefore, ‘fluorimetry EC50’ is a measure for the compound potency. The compound efficacy is mirrored by ‘fluorimetry % efficacy’ (‘% Efficacy’) and refers to the maximum response achievable by the test compound, i.e. the plateau effect. This drug's plateau effect is related to the plateau effect, which can be achieved by applying a saturated concentration of a reference compound, e.g. Retigabine (50 μM), in independent wells of the same experimental plate or series.
[…] CHO-K1 cells expressing KCNQ2/3 channels are cultivated adherently at 37° C., 5% CO2 and 95% humidity in cell culture bottles (e.g. 80 cm^2 TC flasks, Nunc) with DMEM-high glucose (Sigma Aldrich, D7777) including 10% FCS (PAN Biotech, e.g. 3302-P270521) or alternatively MEM Alpha Medium (1×, liquid, Invitrogen, #22571), 10% fetal calf serum (FCS) (Invitrogen, #10270-106, heat-inactivated) and the necessary selection antibiotics.
The cell number is determined using a CASY™ cell counter (TCC, Schärfe System). Depending on the optimal density for each individual cell line, 20,000-30,000 cells/well/100 μl are seeded onto 96-well Corning™ CellBIND™ assay plates (Flat Clear Bottom Black Polystyrene Microplates, #3340). Freshly seeded cells are then left to settle for one hour at room temperature, followed by incubation for 24 hours at 37° C., 5% CO2 and 95% humidity.
The voltage-sensitive fluorescent dye from the Membrane Potential Assay Kit (Red™ Bulk format part R8123 for FLIPR, MDS Analytical Technologies™) is prepared by dissolving the contents of one vessel Membrane Potential Assay Kit Red Component A in 200 ml of extracellular buffer (ES buffer, 120 mM NaCl, 1 mM KCl, 10 mM HEPES, 2 mM CaCl2, 2 mM MgCl2, 10 mM glucose; pH 7.4). After removal of the nutrient medium, the cells are washed once with 200 μl of ES buffer, then loaded for 45 min at room temperature in 100 μl of dye solution in the dark.
Fluorescence measurements are carried out in a BMG Labtech FLUOstar™, BMG Labtech NOVOstar™ or BMG Labtech POLARstar™ instrument (525 nm excitation, 560 nm emission, Bottom Read mode). After incubation with the dye, 50 μl of the test substances in the desired concentrations, or 50 μl of ES buffer for control purposes, are applied to the wells of the assay plate and incubated for 30 min at room temperature while being shielded from light. The fluorescence intensity of the dye is then measured for 5 min and the fluorescence value F1 of each well is thus determined at a given, constant time. 15 μl of a KCl solution are then added to each well (final concentration of potassium ions 92 mM). The change in fluorescence intensity is subsequently monitored until all the relevant values have been obtained (mainly 5-30 min). At a given time post KCl application, a fluorescence value F2 is determined, in this case at the time of the fluorescence peak.
For calculation, the fluorescence intensity F2 is corrected for the fluorescence intensity F1, and the activity (ΔF/F) of the target compound on the potassium channel is determined as follows:
In order to determine whether a substance has agonistic activity,
[formula] can be related to
[formula] of control wells.
[formula] is determined by adding to the well only the buffer solution instead of the test substance, determining the value F1K of the fluorescence intensity, adding the potassium ions as described above, and measuring a value F2K of the fluorescence intensity.

T1 sequence (O43526 whole entry): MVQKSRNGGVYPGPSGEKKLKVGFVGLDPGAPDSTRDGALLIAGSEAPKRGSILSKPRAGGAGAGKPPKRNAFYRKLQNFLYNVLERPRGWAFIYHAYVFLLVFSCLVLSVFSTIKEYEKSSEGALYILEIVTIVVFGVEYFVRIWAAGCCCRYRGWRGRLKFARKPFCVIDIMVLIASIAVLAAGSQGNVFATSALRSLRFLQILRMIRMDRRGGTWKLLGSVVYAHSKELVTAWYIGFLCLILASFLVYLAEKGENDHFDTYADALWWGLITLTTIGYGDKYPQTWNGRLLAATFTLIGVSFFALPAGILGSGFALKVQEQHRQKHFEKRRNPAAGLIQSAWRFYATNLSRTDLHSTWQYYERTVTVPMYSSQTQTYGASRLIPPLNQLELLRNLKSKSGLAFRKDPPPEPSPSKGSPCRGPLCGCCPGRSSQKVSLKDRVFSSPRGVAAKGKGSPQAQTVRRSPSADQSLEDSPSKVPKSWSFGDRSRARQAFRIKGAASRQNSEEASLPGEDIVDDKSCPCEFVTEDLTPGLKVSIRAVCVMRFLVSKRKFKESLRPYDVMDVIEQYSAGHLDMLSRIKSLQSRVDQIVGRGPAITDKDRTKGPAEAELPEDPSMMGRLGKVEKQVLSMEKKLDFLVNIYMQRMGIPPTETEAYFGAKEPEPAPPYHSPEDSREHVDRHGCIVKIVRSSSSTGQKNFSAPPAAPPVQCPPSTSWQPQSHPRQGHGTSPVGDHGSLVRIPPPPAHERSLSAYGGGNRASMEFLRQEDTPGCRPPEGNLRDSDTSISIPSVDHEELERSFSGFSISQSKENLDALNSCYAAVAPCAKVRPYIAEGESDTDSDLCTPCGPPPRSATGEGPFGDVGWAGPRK
T1 sequence (O43525 whole entry): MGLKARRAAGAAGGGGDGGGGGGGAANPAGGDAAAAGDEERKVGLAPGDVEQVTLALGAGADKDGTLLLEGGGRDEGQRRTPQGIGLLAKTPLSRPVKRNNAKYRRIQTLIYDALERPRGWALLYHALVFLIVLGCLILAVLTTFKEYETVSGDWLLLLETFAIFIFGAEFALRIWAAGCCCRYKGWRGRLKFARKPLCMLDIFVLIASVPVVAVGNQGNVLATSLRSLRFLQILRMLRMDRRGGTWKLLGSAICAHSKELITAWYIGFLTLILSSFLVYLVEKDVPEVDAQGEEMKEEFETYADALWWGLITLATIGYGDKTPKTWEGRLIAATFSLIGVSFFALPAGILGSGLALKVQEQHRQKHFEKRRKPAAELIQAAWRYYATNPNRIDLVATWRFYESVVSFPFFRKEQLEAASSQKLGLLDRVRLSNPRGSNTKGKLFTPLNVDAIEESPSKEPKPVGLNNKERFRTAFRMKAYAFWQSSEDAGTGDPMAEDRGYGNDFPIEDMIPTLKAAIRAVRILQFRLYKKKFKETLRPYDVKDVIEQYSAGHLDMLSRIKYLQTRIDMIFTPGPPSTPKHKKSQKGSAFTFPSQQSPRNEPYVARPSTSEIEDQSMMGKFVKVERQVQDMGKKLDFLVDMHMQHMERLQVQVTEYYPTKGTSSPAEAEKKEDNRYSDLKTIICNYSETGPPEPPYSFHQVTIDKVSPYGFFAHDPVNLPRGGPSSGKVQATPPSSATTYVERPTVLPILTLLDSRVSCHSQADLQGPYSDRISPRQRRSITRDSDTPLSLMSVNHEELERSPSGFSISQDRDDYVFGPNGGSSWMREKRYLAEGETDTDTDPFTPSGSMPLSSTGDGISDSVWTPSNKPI

For the compound `CCSc1nc(N2CCC(O)CC2)cc(C)c1C(=O)NCc1cccc(F)c1` [Example 15, 2-Ethylsulfanyl-N-[(3-fluorophenyl)-methyl]-6-(4-hydroxy-piperidin-1-yl)-4-methyl-pyridine-3-carboxylic acid amide], the Emax turned out to be 93% and the EC50 was found to be 7060 nM.

For the compound `CCSc1nc(N2CCC(=O)CC2)cc(C)c1C(=O)NCc1cccc(F)c1` [Example 16, 2-Ethylsulfanyl-N-[(3-fluorophenyl)-methyl]-4-methyl-6-(4-oxo-piperidin-1-yl)-pyridine-3-carboxylic acid amide], the Emax is 149% and the EC50 was 2520 nM.

Consider `CCSc1nc(N2CCOCC2)cc(C)c1C(=O)NCc1ccc(F)cc1OC` [Example 17, 2-Ethylsulfanyl-N-[(4-fluoro-2-methoxy-phenyl)methyl]-4-methyl-6-morpholin-4-yl-pyridine-3-carboxylic acid amide], for which the Emax amounted to 21%.

For the compound `CCSc1nc(N2CCOCC2)cc(C)c1C(=O)NCc1ccc(F)cc1O` [Example 18, 2-Ethylsulfanyl-N-[(4-fluoro-2-hydroxy-phenyl)methyl]-4-methyl-6-morpholin-4-yl-pyridine-3-carboxylic acid amide], the Emax turned out to be 224% and the EC50 stood at 98 nM.

Take `CCNc1nc(N2CCOCC2)cc(C)c1C(=O)NCc1cccc(F)c1` [Example 20, 2-Ethylamino-N-[(3-fluorophenyl)-methyl]-4-methyl-6-morpholin-4-yl-pyridine-3-carboxylic acid amide]: the Emax is 140% and the EC50 was found to be 782 nM.

Regarding `COCCOc1nc(N2CCOCC2)cc(C)c1C(=O)NCc1cccc(F)c1` [Example 21, N-[(3-Fluorophenyl)-methyl]-2-(2-methoxy-ethoxy)-4-methyl-6-morpholin-4-yl-pyridine-3-carboxylic acid amide], the Emax turned out to be 146% and the EC50 was found to be 1220 nM.

In the case of `CCc1nc(N2CCOCC2)cc(C)c1C(=O)NCc1cccc(F)c1` [Example 22, 2-Ethyl-N-[(3-fluorophenyl)-methyl]-4-methyl-6-morpholin-4-yl-pyridine-3-carboxylic acid amide], the Emax was 166% and the EC50 stood at 790 nM.

In the case of `Cc1cc(N2CCOCC2)nc(C(C)C)c1C(=O)NCc1cccc(F)c1` [Example 23, N-[(3-Fluorophenyl)-methyl]-2-isopropyl-4-methyl-6-morpholin-4-yl-pyridine-3-carboxylic acid amide], the Emax was found to be 182% and the EC50 turned out to be 113 nM.

As for `Cc1cc(N2CCOCC2)nc(N2CCCC2)c1C(=O)NCc1cccc(F)c1` [Example 24, N-[(3-Fluorophenyl)-methyl]-4-methyl-6-morpholin-4-yl-2-pyrrolidin-1-yl-pyridine-3-carboxylic acid amide], the Emax came out at 210% and the EC50 amounted to 308 nM.

As for `CCSc1nc(N2CCCC2)cc(C)c1C(=O)NCc1cccc(F)c1` [Example 25, 2-Ethylsulfanyl-N-[(3-fluorophenyl)-methyl]-4-methyl-6-pyrrolidin-1-yl-pyridine-3-carboxylic acid amide], the Emax was determined as 162% and the EC50 came out at 211 nM.

Take `CCSc1nc(N2CCc3ccccc3C2)cc(C)c1C(=O)NCc1cccc(F)c1` [Example 26, 2-Ethylsulfanyl-N-[(3-fluorophenyl)-methyl]-4-methyl-6-(1,2,3,4-tetrahydro-isoquinolin-2-yl)-pyridine-3-carboxylic acid amide]: the Emax turned out to be 155% and the EC50 turned out to be 132 nM.

On to `CCSc1nc(N2CCc3cc(C(F)(F)F)ccc3C2)cc(C)c1C(=O)NCc1cccc(F)c1` [Example 27, 2-Ethylsulfanyl-N-[(3-fluorophenyl)-methyl]-4-methyl-6-[6-(trifluoromethyl)-1,2,3,4-tetrahydro-isoquinolin-2-yl]pyridine-3-carboxylic acid amide], for which the Emax came out at 132% and the EC50 came out at 151 nM.

Take `CCCc1nc(N2CCOCC2)cc(C)c1C(=O)NCc1ccc(F)cc1` [Example 29, N-[(4-Fluorophenyl)-methyl]-4-methyl-6-morpholin-4-yl-2-propyl-pyridine-3-carboxylic acid amide]: the Emax is 185% and the EC50 was 236 nM.

For the compound `CCSc1nc(N2CCC(OC)C2)cc(C)c1C(=O)NCc1cccc(F)c1` (centres unmarked) [Example 30, 2-Ethylsulfanyl-N-[(3-fluorophenyl)-methyl]-6-(3-methoxy-pyrrolidin-1-yl)-4-methyl-pyridine-3-carboxylic acid amide], the Emax was determined as 144% and the EC50 worked out at 1320 nM.

As to `CCSc1nc(N2CCN(C)CC2)cc(C)c1C(=O)NCc1cccc(F)c1` [Example 31, 2-Ethylsulfanyl-N-[(3-fluorophenyl)-methyl]-4-methyl-6-(4-methyl-piperazin-1-yl)-pyridine-3-carboxylic acid amide], the Emax stood at 23%.

With `CCSc1nc(N2CCCCC2)cc(C)c1C(=O)NCc1cccc(F)c1` [Example 32, 2-Ethylsulfanyl-N-[(3-fluorophenyl)-methyl]-4-methyl-6-piperidin-1-yl-pyridine-3-carboxylic acid amide], the Emax amounted to 166% and the EC50 stood at 132 nM.

Take `CCSc1nc(N(C)C)cc(C)c1C(=O)NCc1cccc(F)c1` [Example 33, 6-Dimethylamino-2-ethylsulfanyl-N-[(3-fluorophenyl)-methyl]-4-methyl-pyridine-3-carboxylic acid amide]: the Emax came to 110% and the EC50 stood at 639 nM.

Regarding `CCSc1nc(NC)cc(C)c1C(=O)NCc1cccc(F)c1` [Example 34, 2-Ethylsulfanyl-N-[(3-fluorophenyl)-methyl]-4-methyl-6-methylamino-pyridine-3-carboxylic acid amide], the Emax is 37% and the EC50 was 1830 nM.

`CCSc1nc(N(C)CCOC)cc(C)c1C(=O)NCc1cccc(F)c1` [Example 35, 2-Ethylsulfanyl-N-[(3-fluorophenyl)-methyl]-6-(2-methoxy-ethyl-methyl-amino)-4-methyl-pyridine-3-carboxylic acid amide]: the Emax was 153% and the EC50 turned out to be 635 nM.

As for `CCSc1nc(NCCOC)cc(C)c1C(=O)NCc1cccc(F)c1` [Example 36, 2-Ethylsulfanyl-N-[(3-fluorophenyl)-methyl]-6-(2-methoxy-ethylamino)-4-methyl-pyridine-3-carboxylic acid amide], the Emax turned out to be 125% and the EC50 turned out to be 6000 nM.

Regarding `Cc1cc(N2CCOCC2)nc(SC(C)C)c1C(=O)NCc1cccc(F)c1` [Example 37, N-[(3-Fluorophenyl)-methyl]-2-(isopropylsulfanyl)-4-methyl-6-morpholin-4-yl-pyridine-3-carboxylic acid amide], the Emax came out at 148% and the EC50 was determined as 99 nM.

`COc1nc(N2CCOCC2)cc(C)c1C(=O)NCc1ccc(F)cc1` [Example 39, N-[(4-Fluorophenyl)-methyl]-2-methoxy-4-methyl-6-morpholin-4-yl-pyridine-3-carboxylic acid amide]: the Emax amounted to 143% and the EC50 amounted to 645 nM.

With `CCSc1nc(N2CCOCC2)cc(C)c1C(=O)NCCC(C)C` [Example 42, 2-Ethylsulfanyl-4-methyl-N-(3-methyl-butyl)-6-morpholin-4-yl-pyridine-3-carboxylic acid amide], the Emax stood at 169% and the EC50 amounted to 571 nM.
